{"source": "the NIST ThermoML archive (doi:10.1016/j.jct.2013.05.024)", "assay": "excess molar enthalpy (molar enthalpy of mixing); xn = mol fraction of the nth substance listed", "settings": "101.3 kPa, Liquid, Isoperibol calorimetry", "note": "± gives the expanded uncertainty stated by the source.", "data": [{"smiles": "CCOC(=O)C(=O)OCC", "note": "[diethyl ethanedioate] + CCO", "values": [{"measurement": "excess molar enthalpy", "setting": "288.2 K, x1 = 0.0495", "value": "0.0698 ± 0.00143", "unit": "kcal/mol"}, {"measurement": "excess molar enthalpy", "setting": "288.2 K, x1 = 0.0994", "value": "0.135 ± 0.00191", "unit": "kcal/mol"}, {"measurement": "excess molar enthalpy", "setting": "288.2 K, x1 = 0.1508", "value": "0.194 ± 0.00215", "unit": "kcal/mol"}, {"measurement": "excess molar enthalpy", "setting": "288.2 K, x1 = 0.2004", "value": "0.237 ± 0.00239", "unit": "kcal/mol"}, {"measurement": "excess molar enthalpy", "setting": "288.2 K, x1 = 0.2497", "value": "0.2763 ± 0.00263", "unit": "kcal/mol"}, {"measurement": "excess molar enthalpy", "setting": "288.2 K, x1 = 0.3009", "value": "0.3045 ± 0.00263", "unit": "kcal/mol"}, {"measurement": "excess molar enthalpy", "setting": "288.2 K, x1 = 0.3502", "value": "0.3272 ± 0.00287", "unit": "kcal/mol"}, {"measurement": "excess molar enthalpy", "setting": "288.2 K, x1 = 0.4003", "value": "0.3466 ± 0.00311", "unit": "kcal/mol"}, {"measurement": "excess molar enthalpy", "setting": "288.2 K, x1 = 0.4508", "value": "0.3566 ± 0.00311", "unit": "kcal/mol"}, {"measurement": "excess molar enthalpy", "setting": "288.2 K, x1 = 0.5011", "value": "0.3642 ± 0.00311", "unit": "kcal/mol"}, {"measurement": "excess molar enthalpy", "setting": "288.2 K, x1 = 0.5506", "value": "0.365 ± 0.00311", "unit": "kcal/mol"}, {"measurement": "excess molar enthalpy", "setting": "288.2 K, x1 = 0.5986", "value": "0.3611 ± 0.00311", "unit": "kcal/mol"}, {"measurement": "excess molar enthalpy", "setting": "288.2 K, x1 = 0.6502", "value": "0.3511 ± 0.00311", "unit": "kcal/mol"}, {"measurement": "excess molar enthalpy", "setting": "288.2 K, x1 = 0.6996", "value": "0.3325 ± 0.00287", "unit": "kcal/mol"}, {"measurement": "excess molar enthalpy", "setting": "288.2 K, x1 = 0.7525", "value": "0.3057 ± 0.00263", "unit": "kcal/mol"}, {"measurement": "excess molar enthalpy", "setting": "288.2 K, x1 = 0.8021", "value": "0.2713 ± 0.00239", "unit": "kcal/mol"}, {"measurement": "excess molar enthalpy", "setting": "288.2 K, x1 = 0.8473", "value": "0.2268 ± 0.00215", "unit": "kcal/mol"}, {"measurement": "excess molar enthalpy", "setting": "288.2 K, x1 = 0.9034", "value": "0.164 ± 0.00191", "unit": "kcal/mol"}, {"measurement": "excess molar enthalpy", "setting": "288.2 K, x1 = 0.946", "value": "0.0997 ± 0.00167", "unit": "kcal/mol"}, {"measurement": "excess molar enthalpy", "setting": "298.2 K, x1 = 0.0495", "value": "0.0837 ± 0.00191", "unit": "kcal/mol"}, {"measurement": "excess molar enthalpy", "setting": "298.2 K, x1 = 0.0994", "value": "0.161 ± 0.00191", "unit": "kcal/mol"}, {"measurement": "excess molar enthalpy", "setting": "298.2 K, x1 = 0.1508", "value": "0.222 ± 0.00215", "unit": "kcal/mol"}, {"measurement": "excess molar enthalpy", "setting": "298.2 K, x1 = 0.2004", "value": "0.2679 ± 0.00239", "unit": "kcal/mol"}, {"measurement": "excess molar enthalpy", "setting": "298.2 K, x1 = 0.2497", "value": "0.3083 ± 0.00287", "unit": "kcal/mol"}, {"measurement": "excess molar enthalpy", "setting": "298.2 K, x1 = 0.3009", "value": "0.3411 ± 0.00287", "unit": "kcal/mol"}, {"measurement": "excess molar enthalpy", "setting": "298.2 K, x1 = 0.3502", "value": "0.3654 ± 0.00311", "unit": "kcal/mol"}, {"measurement": "excess molar enthalpy", "setting": "298.2 K, x1 = 0.4003", "value": "0.3846 ± 0.00335", "unit": "kcal/mol"}, {"measurement": "excess molar enthalpy", "setting": "298.2 K, x1 = 0.4508", "value": "0.3989 ± 0.00335", "unit": "kcal/mol"}, {"measurement": "excess molar enthalpy", "setting": "298.2 K, x1 = 0.5011", "value": "0.4051 ± 0.00335", "unit": "kcal/mol"}, {"measurement": "excess molar enthalpy", "setting": "298.2 K, x1 = 0.5506", "value": "0.4051 ± 0.00335", "unit": "kcal/mol"}, {"measurement": "excess molar enthalpy", "setting": "298.2 K, x1 = 0.5986", "value": "0.4001 ± 0.00335", "unit": "kcal/mol"}, {"measurement": "excess molar enthalpy", "setting": "298.2 K, x1 = 0.6502", "value": "0.385 ± 0.00335", "unit": "kcal/mol"}, {"measurement": "excess molar enthalpy", "setting": "298.2 K, x1 = 0.6996", "value": "0.3638 ± 0.00311", "unit": "kcal/mol"}, {"measurement": "excess molar enthalpy", "setting": "298.2 K, x1 = 0.7525", "value": "0.332 ± 0.00287", "unit": "kcal/mol"}, {"measurement": "excess molar enthalpy", "setting": "298.2 K, x1 = 0.8021", "value": "0.2935 ± 0.00263", "unit": "kcal/mol"}, {"measurement": "excess molar enthalpy", "setting": "298.2 K, x1 = 0.8473", "value": "0.2481 ± 0.00239", "unit": "kcal/mol"}, {"measurement": "excess molar enthalpy", "setting": "298.2 K, x1 = 0.9034", "value": "0.172 ± 0.00215", "unit": "kcal/mol"}, {"measurement": "excess molar enthalpy", "setting": "298.2 K, x1 = 0.946", "value": "0.101 ± 0.00191", "unit": "kcal/mol"}, {"measurement": "excess molar enthalpy", "setting": "313.2 K, x1 = 0.0495", "value": "0.0949 ± 0.00215", "unit": "kcal/mol"}, {"measurement": "excess molar enthalpy", "setting": "313.2 K, x1 = 0.0994", "value": "0.185 ± 0.00239", "unit": "kcal/mol"}, {"measurement": "excess molar enthalpy", "setting": "313.2 K, x1 = 0.1508", "value": "0.257 ± 0.00263", "unit": "kcal/mol"}, {"measurement": "excess molar enthalpy", "setting": "313.2 K, x1 = 0.2004", "value": "0.3093 ± 0.00287", "unit": "kcal/mol"}, {"measurement": "excess molar enthalpy", "setting": "313.2 K, x1 = 0.2497", "value": "0.3564 ± 0.00311", "unit": "kcal/mol"}, {"measurement": "excess molar enthalpy", "setting": "313.2 K, x1 = 0.3009", "value": "0.3929 ± 0.00335", "unit": "kcal/mol"}, {"measurement": "excess molar enthalpy", "setting": "313.2 K, x1 = 0.3502", "value": "0.4209 ± 0.00359", "unit": "kcal/mol"}, {"measurement": "excess molar enthalpy", "setting": "313.2 K, x1 = 0.4003", "value": "0.4419 ± 0.00359", "unit": "kcal/mol"}, {"measurement": "excess molar enthalpy", "setting": "313.2 K, x1 = 0.4508", "value": "0.4582 ± 0.00382", "unit": "kcal/mol"}, {"measurement": "excess molar enthalpy", "setting": "313.2 K, x1 = 0.5011", "value": "0.463 ± 0.00382", "unit": "kcal/mol"}, {"measurement": "excess molar enthalpy", "setting": "313.2 K, x1 = 0.5506", "value": "0.4613 ± 0.00382", "unit": "kcal/mol"}, {"measurement": "excess molar enthalpy", "setting": "313.2 K, x1 = 0.5986", "value": "0.4541 ± 0.00382", "unit": "kcal/mol"}, {"measurement": "excess molar enthalpy", "setting": "313.2 K, x1 = 0.6502", "value": "0.4362 ± 0.00359", "unit": "kcal/mol"}, {"measurement": "excess molar enthalpy", "setting": "313.2 K, x1 = 0.6996", "value": "0.4101 ± 0.00359", "unit": "kcal/mol"}, {"measurement": "excess molar enthalpy", "setting": "313.2 K, x1 = 0.7525", "value": "0.3731 ± 0.00311", "unit": "kcal/mol"}, {"measurement": "excess molar enthalpy", "setting": "313.2 K, x1 = 0.8021", "value": "0.325 ± 0.00287", "unit": "kcal/mol"}, {"measurement": "excess molar enthalpy", "setting": "313.2 K, x1 = 0.8473", "value": "0.2691 ± 0.00263", "unit": "kcal/mol"}, {"measurement": "excess molar enthalpy", "setting": "313.2 K, x1 = 0.9034", "value": "0.19 ± 0.00239", "unit": "kcal/mol"}, {"measurement": "excess molar enthalpy", "setting": "313.2 K, x1 = 0.946", "value": "0.116 ± 0.00215", "unit": "kcal/mol"}, {"measurement": "excess molar enthalpy", "setting": "328.2 K, x1 = 0.0495", "value": "0.104 ± 0.00215", "unit": "kcal/mol"}, {"measurement": "excess molar enthalpy", "setting": "328.2 K, x1 = 0.0994", "value": "0.205 ± 0.00263", "unit": "kcal/mol"}, {"measurement": "excess molar enthalpy", "setting": "328.2 K, x1 = 0.1508", "value": "0.2875 ± 0.00287", "unit": "kcal/mol"}, {"measurement": "excess molar enthalpy", "setting": "328.2 K, x1 = 0.2004", "value": "0.3468 ± 0.00311", "unit": "kcal/mol"}, {"measurement": "excess molar enthalpy", "setting": "328.2 K, x1 = 0.2497", "value": "0.4006 ± 0.00335", "unit": "kcal/mol"}, {"measurement": "excess molar enthalpy", "setting": "328.2 K, x1 = 0.3009", "value": "0.4379 ± 0.00359", "unit": "kcal/mol"}, {"measurement": "excess molar enthalpy", "setting": "328.2 K, x1 = 0.3502", "value": "0.4706 ± 0.00382", "unit": "kcal/mol"}, {"measurement": "excess molar enthalpy", "setting": "328.2 K, x1 = 0.4003", "value": "0.4933 ± 0.00406", "unit": "kcal/mol"}, {"measurement": "excess molar enthalpy", "setting": "328.2 K, x1 = 0.4508", "value": "0.5081 ± 0.00406", "unit": "kcal/mol"}, {"measurement": "excess molar enthalpy", "setting": "328.2 K, x1 = 0.5011", "value": "0.5127 ± 0.0043", "unit": "kcal/mol"}, {"measurement": "excess molar enthalpy", "setting": "328.2 K, x1 = 0.5506", "value": "0.5112 ± 0.0043", "unit": "kcal/mol"}, {"measurement": "excess molar enthalpy", "setting": "328.2 K, x1 = 0.5986", "value": "0.499 ± 0.00406", "unit": "kcal/mol"}, {"measurement": "excess molar enthalpy", "setting": "328.2 K, x1 = 0.6502", "value": "0.4775 ± 0.00406", "unit": "kcal/mol"}, {"measurement": "excess molar enthalpy", "setting": "328.2 K, x1 = 0.6996", "value": "0.4474 ± 0.00382", "unit": "kcal/mol"}, {"measurement": "excess molar enthalpy", "setting": "328.2 K, x1 = 0.7525", "value": "0.4001 ± 0.00335", "unit": "kcal/mol"}, {"measurement": "excess molar enthalpy", "setting": "328.2 K, x1 = 0.8021", "value": "0.3456 ± 0.00311", "unit": "kcal/mol"}, {"measurement": "excess molar enthalpy", "setting": "328.2 K, x1 = 0.8473", "value": "0.2878 ± 0.00287", "unit": "kcal/mol"}, {"measurement": "excess molar enthalpy", "setting": "328.2 K, x1 = 0.9034", "value": "0.194 ± 0.00239", "unit": "kcal/mol"}, {"measurement": "excess molar enthalpy", "setting": "328.2 K, x1 = 0.946", "value": "0.116 ± 0.00215", "unit": "kcal/mol"}]}]}
